We go through 3 molecules from ChEMBL document CHEMBL5209563, “FFN206 based assay for SLC18A1 using HEK-293 SLC18A1 OE cells” (2022).

The source made the active and inactive calls. No cut-off for these calls is given here. Bounds are passed on as bounds.

The assay concerns the target T1, Chromaffin granule amine transporter (Homo sapiens, UniProt P54219).
T1 sequence (P54219 whole entry): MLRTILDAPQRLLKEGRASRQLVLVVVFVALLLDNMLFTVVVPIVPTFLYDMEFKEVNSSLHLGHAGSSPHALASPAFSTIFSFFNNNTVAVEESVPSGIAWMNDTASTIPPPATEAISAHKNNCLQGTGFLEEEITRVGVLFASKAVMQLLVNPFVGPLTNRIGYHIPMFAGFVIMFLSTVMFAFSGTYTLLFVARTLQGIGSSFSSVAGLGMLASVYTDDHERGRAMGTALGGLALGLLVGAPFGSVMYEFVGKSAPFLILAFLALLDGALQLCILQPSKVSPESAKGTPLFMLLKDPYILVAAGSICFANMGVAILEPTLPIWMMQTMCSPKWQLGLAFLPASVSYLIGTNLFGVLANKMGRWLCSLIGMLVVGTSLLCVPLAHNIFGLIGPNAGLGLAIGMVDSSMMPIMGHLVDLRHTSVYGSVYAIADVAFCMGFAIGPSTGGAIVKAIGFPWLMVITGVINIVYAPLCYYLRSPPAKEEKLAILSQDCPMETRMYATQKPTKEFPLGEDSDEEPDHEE
In words: Substrate uptake and inhibition of the chromaffin granule amine transporter (VAT1, VMAT1, SLC18A1) as assessed by uptake of a fluorescent substrate (FFN206) in HEK-293 JumpIN-SLC18A1 cells (PubChem AID: 1794818). It is filed as functional, cell-based, HEK293.

`CNc1ccc2c(CCN)cc(=O)oc2c1` showed an EC50 of 2000 nM.
Regarding `COC(=O)[C@H]1[C@H]2C[C@@H]3c4[nH]c5cc(OC)ccc5c4CCN3C[C@H]2C[C@@H](OC(=O)c2cc(OC)c(OC)c(OC)c2)[C@@H]1OC` [RESERPINE], the IC50 was 50 nM.
The same measure, in the same setting: in the case of `COc1cc2c(cc1OC)C1CC(=O)C(CC(C)C)CN1CC2` (stereo not drawn) [TETRABENAZINE] it was > 10000 nM (inactive).
